# Source: ChEMBL document CHEMBL1201862, “PubChem BioAssay data set” (2004)
# The source made the active and inactive calls.
# Legend:
# [1] = target: Kallikrein-7 (Homo sapiens, UniProt P49862); experiment: Fluorescence Intensity-based biochemical primary high throughput dose response assay to identify activators of kallikrein-7 (K7) zymogen.
# [2] = target: T1, Oxysterols receptor LXR-beta (Homo sapiens, UniProt P55055); assay type: functional, cell-based;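 note: agonist activity at LXR measured by a cell-based luminescence readout across a dose range, run as a counterscreen for daf-12 agonists; HEK293 cells with Gal4-LXR fusion and GAL4-driven luciferase reporter; potency for activation of Gal4-LXR reporter so compounds are agonists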
# T1 sequence (P55055 whole entry): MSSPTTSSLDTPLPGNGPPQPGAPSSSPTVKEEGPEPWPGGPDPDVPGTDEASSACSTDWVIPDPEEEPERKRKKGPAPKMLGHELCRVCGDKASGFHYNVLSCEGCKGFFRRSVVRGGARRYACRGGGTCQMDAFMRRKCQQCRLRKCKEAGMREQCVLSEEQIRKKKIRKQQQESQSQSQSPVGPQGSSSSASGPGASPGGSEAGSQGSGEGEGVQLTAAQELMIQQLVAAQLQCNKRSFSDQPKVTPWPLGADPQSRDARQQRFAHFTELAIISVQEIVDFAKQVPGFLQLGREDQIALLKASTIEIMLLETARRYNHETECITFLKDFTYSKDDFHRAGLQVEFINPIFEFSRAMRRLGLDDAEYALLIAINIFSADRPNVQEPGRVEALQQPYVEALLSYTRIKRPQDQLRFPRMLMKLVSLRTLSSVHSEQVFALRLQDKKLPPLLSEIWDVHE
# [3] = HEK293 Cytotoxicity Assay Measured in Cell-Based System Using Plate Reader - 7071-01_Inhibitor_Dose_CherryPick_Activity_Set2.; assay type: functional
# [4] = system: HEK293; experiment: HEK293T cell cytotoxicity, dose response, cytotoxicity control, ATP luminescence, cherry-pick samples (AID 687005); assay type: functional, cell-based; details: Homo sapiens;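 note: cells exposed to compound for 48 hours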
# [5] = system: HeLa; experiment: HeLa cell cytotoxicity, dose response, cytotoxicity control, ATP luminescence, cherry-pick samples (AID 687004); assay type: functional, cell-based; details: Homo sapiens
# [6] = A549 cell cytotoxicity, dose response, cytotoxicity control, 24 h, CellTiter-Glo luminescence, cherry-picks (AID 1053115); assay type: functional, cell-based; details: A549, 24 h
# [7] = inhibitors of non-replicating M. tuberculosis, dose response, luciferase, dry powder (AID 651620); assay type: functional; details: Mycobacterium tuberculosis
# [8] = inhibitors of non-replicating M. tuberculosis, dose response, luciferase, dry powder (AID 651619); assay type: functional; details: Mycobacterium tuberculosis
# [9] = growth inhibition of replicating M. tuberculosis, dose response, counter-screen, dry powder, IC90 (AID 651617); assay type: functional; details: Mycobacterium tuberculosis
# [10] = MITF Orthogonal Assay: MALME3 CTG Assay Measured in Cell-Based System Using Plate Reader - 2084-04_Inhibitor_Dose_DryPowder_Activity_Set6.; assay type: functional; details: MALME-3
# [11] = SK-MEL-5 parental cell viability reduction, dose response, orthogonal assay for MITF inhibitor project, CellTiter-Glo luminescence, dry powder, set 8 (AID 651586); assay type: functional, cell-based
# [12] = TRPM1 promoter luciferase reporter signal decrease, dose response, MITF inhibitor project, cell-based, SK-MEL-5, dry powder, set 9 (AID 651588); assay type: functional
# [13] = A375 melanoma cell viability loss, dose response, counter-screen for MITF modulator project, CellTiter-Glo luminescence, dry powder, set 9 (AID 651591); assay type: functional, cell-based; details: A-375
# [14] = MITF Orthogonal Assay: SK-MEL-5 CTG Assay Measured in Cell-Based System Using Plate Reader - 2084-02_Inhibitor_Dose_DryPowder_Activity_Set7.; assay type: functional
# [15] = MALME3 melanoma cell viability reduction, dose response, orthogonal assay for MITF inhibitor project, CellTiter-Glo luminescence, dry powder, set 5 (AID 651584); assay type: functional, cell-based; details: MALME-3
# [16] = TRPM1 promoter luciferase reporter signal decrease, dose response, MITF inhibitor project, cell-based, SK-MEL-5, dry powder, set 8 (AID 624430); assay type: functional
# [17] = MITF: Counter assay: A375 proliferation Measured in Cell-Based System Using Plate Reader - 2084-03_Inhibitor_Dose_DryPowder_Activity_Set8.; assay type: functional; details: A-375
# [18] = Late stage assay provider results from the probe development effort to identify selective inhibitors of heat shock protein 90 (HSP90): Absorbance-based cell proliferation assay in MCF7 cells.; assay type: functional
# [19] = Late stage assay provider results from the probe development effort to identify selective inhibitors of heat shock protein 90 (HSP90): Absorbance-based cell proliferation assay in SKBR3 cells.; assay type: functional; details: SK-BR-3
# [20] = target: Fatty acid synthase (Homo sapiens, UniProt P49327); experiment: FAS thioesterase domain inhibitors, SAR follow-up, biochemical, endpoint fluorescence intensity, powder samples (AID 652164); assay type: functional
# Sequence of Fatty acid synthase (P49327 whole entry, the tested form may be a part): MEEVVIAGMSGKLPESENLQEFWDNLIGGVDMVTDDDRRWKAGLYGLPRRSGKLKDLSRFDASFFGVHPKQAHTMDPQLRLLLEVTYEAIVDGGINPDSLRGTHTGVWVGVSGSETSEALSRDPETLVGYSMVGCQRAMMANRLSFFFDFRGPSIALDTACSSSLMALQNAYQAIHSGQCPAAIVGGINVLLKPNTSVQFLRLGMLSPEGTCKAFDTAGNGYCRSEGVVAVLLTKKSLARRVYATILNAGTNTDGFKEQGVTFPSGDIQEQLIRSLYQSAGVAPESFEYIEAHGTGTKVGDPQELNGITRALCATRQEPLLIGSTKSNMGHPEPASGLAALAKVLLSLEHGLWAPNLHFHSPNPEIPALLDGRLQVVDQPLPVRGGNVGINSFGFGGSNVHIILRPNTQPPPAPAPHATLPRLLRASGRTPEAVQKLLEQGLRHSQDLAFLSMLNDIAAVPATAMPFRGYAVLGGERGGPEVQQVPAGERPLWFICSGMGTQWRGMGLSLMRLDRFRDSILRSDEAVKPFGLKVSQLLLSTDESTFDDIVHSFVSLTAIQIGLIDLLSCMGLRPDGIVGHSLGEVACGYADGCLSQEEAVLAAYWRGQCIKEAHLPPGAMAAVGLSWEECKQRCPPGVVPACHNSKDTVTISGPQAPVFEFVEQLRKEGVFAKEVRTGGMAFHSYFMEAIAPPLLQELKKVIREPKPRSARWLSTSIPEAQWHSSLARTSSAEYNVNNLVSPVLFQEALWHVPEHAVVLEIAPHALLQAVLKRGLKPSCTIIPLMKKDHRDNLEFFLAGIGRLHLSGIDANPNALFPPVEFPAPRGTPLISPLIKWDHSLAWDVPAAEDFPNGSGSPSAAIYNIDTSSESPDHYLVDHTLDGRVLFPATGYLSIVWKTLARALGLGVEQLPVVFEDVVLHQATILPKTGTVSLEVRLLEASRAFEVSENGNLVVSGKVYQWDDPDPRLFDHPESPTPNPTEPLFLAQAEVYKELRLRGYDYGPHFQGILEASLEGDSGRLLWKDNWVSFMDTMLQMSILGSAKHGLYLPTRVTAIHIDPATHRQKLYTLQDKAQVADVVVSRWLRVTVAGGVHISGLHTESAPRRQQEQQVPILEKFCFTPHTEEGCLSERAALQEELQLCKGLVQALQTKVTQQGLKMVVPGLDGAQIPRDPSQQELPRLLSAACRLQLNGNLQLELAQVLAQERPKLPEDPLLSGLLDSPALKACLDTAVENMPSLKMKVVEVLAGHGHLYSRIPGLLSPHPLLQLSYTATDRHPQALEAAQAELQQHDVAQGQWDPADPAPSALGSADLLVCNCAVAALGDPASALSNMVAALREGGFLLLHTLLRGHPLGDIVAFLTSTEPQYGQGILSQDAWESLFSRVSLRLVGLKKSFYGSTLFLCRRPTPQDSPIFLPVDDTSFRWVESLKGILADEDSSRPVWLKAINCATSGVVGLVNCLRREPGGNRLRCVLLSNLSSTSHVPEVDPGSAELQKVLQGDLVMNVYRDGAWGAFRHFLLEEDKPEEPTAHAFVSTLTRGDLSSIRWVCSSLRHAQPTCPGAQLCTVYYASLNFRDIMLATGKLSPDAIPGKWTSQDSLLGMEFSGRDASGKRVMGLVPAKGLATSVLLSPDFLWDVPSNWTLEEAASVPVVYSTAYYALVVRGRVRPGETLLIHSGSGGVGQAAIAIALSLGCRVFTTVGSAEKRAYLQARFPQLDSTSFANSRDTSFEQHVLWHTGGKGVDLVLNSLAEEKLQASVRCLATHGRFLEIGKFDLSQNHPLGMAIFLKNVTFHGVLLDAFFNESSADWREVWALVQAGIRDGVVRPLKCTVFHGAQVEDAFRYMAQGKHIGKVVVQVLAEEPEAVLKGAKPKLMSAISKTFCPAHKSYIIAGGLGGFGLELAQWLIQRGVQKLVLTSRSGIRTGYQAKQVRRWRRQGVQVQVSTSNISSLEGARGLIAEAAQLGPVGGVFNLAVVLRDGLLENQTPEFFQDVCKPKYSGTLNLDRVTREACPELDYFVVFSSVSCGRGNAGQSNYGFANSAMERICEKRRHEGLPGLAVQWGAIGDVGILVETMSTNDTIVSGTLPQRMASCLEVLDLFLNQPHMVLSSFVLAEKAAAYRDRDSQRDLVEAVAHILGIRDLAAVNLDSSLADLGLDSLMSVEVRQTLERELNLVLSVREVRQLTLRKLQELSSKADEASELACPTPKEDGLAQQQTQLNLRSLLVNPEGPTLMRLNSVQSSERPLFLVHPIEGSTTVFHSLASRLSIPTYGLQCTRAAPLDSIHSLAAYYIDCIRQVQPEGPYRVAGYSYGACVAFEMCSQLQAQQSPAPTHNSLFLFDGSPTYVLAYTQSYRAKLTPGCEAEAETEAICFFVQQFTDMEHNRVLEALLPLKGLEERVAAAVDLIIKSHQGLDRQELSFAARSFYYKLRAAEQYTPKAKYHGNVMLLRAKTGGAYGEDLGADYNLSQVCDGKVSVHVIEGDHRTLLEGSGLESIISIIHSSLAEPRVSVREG
# [21] = target: T2, High affinity choline transporter 1 (Homo sapiens, UniProt Q9GZV3); experiment: CHT choline uptake inhibitors, dose response, cell-based, HEK-293 hCHT, [3H]-choline uptake (AID 652177); assay type: functional
# T2 sequence (Q9GZV3 whole entry): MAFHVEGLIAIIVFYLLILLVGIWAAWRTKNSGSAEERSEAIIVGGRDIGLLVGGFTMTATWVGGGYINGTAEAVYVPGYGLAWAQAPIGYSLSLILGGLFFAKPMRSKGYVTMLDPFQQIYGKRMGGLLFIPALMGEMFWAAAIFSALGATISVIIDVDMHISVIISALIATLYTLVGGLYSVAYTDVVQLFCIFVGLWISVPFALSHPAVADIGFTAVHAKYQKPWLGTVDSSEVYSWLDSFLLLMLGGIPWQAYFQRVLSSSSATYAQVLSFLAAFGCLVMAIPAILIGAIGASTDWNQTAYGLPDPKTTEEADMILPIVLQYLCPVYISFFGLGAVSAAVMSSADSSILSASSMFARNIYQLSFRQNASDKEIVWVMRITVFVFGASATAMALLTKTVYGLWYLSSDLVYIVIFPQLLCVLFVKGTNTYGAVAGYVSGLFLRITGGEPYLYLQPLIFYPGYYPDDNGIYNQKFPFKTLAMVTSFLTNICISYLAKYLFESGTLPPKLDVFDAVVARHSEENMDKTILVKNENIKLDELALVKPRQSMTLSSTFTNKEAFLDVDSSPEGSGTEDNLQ
# [22] = cytotoxicity in HepG2 cells, dose response, cytotoxicity control, cell-based, cherry-picked samples (AID 1053183); assay type: functional
# Sequence of Kallikrein-7 (P49862 whole entry, the tested form may be a part): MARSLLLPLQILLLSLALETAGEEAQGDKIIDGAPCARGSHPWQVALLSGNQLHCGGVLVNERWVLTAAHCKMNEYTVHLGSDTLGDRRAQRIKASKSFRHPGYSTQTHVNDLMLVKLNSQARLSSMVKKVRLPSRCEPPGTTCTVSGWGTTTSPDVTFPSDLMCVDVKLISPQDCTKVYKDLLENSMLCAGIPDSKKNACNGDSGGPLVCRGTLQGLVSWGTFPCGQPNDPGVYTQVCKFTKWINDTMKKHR
smiles,measurement,setting,value
CSc1ccc(/C=C/C(=O)OCC(=O)NC2CCS(=O)(=O)C2)cc1 (configuration not stated),EC50,[1],> 69.5 µM (inactive)
CC(C)C(N)c1csc(Nc2nncc3ccccc23)n1 (configuration not stated),EC50,[2],> 67.1 µM (inactive)
Cc1ccccc1CN(C)C[C@H]1OCc2cn(nn2)CCCC(=O)N([C@@H](C)CO)C[C@H]1C,AC50,[3],46.7 µM (active)
same,AC50,[4],46.7 µM (active)
same,AC50,[5],14.7 µM (active)
N#Cc1ccc(-c2ccc3c(c2)[C@H]2[C@H](CCN2C(=O)C2CCCCC2)[C@H](CO)N3)cc1,AC50,[6],42 µM (active)
c1ccc(-n2cc(CSc3nnc(C4CCCC4)o3)nn2)cc1,IC90,[7],1 µM (active)
same,IC90,[8],1 µM (active)
same,IC90,[9],125 µM (active)
CC(C)N1CCN(C2=C(Nc3ccc(F)cc3)C(=O)c3ccccc3C2=O)CC1,AC50,[10],38.6 µM (active)
same,AC50,[11],> 70 µM (inactive)
same,AC50,[12],9.77 µM (active)
same,AC50,[13],> 70 µM (inactive)
same,AC50,[14],10.5 µM (active)
same,AC50,[15],38.6 µM (active)
same,AC50,[16],3.6 µM (active)
same,AC50,[17],> 70 µM (inactive)
COc1ccc(NC(=O)c2ccc(NC(=O)c3coc(=O)c(Br)c3)cc2)cc1,IC50,[18],12.1 µM (inactive)
same,IC50,[19],27.2 µM (inactive)
CCCCC(=O)Nc1nc(-c2ccc(C(=O)N3CCOCC3)cc2)cs1,IC50,[20],35.3 µM (inactive)
COc1ccc(C(=O)NCc2cc(C)n(C)n2)cc1OC1CCN(C(C)C)CC1,IC50,[21],65.5 µM (inconclusive)
O=S(=O)(c1ccc(F)cc1)N1C[C@@H]2N[C@H](C1)[C@@H]2c1ccc(/C=C/c2ccccc2)cc1,AC50,[22],19.1 µM (active)
